Publication PMC5706701, “Development of a homogenous high-throughput assay for inositol hexakisphosphate kinase 1 activity” (PLoS ONE, 2017)
Structures can show the parent of a compound that is named as a salt. Where two headings read alike, the source gives them in different places.

Target: T1, Human IP6K1 (Homo sapiens, UniProt Q92551)
T1 construct: GST (N, cleaved yes); made in house; host or cells: C43 E. coli, pGEX-6P-2
Experiment: IP6K1 high-throughput screen of the Sigma LOPAC (ADP-Glo Max, single point);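 further: final compound concentration 10µM in 5% DMSO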
Type: biochemical

[1] = LOPAC single-point screen, ADP-Glo Max raw signal per well
[2] = LOPAC single-point screen, Z-score against plate average and StDev
[3] = Sigma LOPAC single-point screen, ADP-Glo Max raw signal per well
[4] = Sigma LOPAC single-point screen, Z-score from plate average and StDev
[5] = LOPAC single-point screen, ADP-Glo Max luminescence raw signal per well
[6] = LOPAC single-point screen, Z-score relative to plate average and StDev
[7] = LOPAC single-point screen, Z-score from raw signal with plate average and StDev

T1 sequence (Q92551 whole entry): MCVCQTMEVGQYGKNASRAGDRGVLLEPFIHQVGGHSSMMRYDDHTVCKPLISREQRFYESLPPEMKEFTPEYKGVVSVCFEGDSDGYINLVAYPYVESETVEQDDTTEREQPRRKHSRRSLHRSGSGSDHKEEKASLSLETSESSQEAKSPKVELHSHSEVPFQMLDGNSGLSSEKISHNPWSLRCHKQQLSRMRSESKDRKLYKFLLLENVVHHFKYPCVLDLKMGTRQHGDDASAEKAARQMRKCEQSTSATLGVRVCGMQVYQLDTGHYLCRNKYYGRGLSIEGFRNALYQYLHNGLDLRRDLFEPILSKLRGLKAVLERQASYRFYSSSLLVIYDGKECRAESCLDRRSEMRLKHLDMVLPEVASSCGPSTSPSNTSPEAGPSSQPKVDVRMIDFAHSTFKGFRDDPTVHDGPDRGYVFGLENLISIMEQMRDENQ

Raw Signal [1]	Raw Signal [3]	Z-score [4]	Compound	further results
58068	–	–	CCn1nc(C(=O)O)c(=O)c2cc3c(cc21)OCO3 [Cinoxacin]	Z-score [2]: 0.02728
–	63809	1.038	CC(C)(Oc1ccc(C2CC2(Cl)Cl)cc1)C(=O)O (centres unmarked) [Ciprofibrate]	–
–	–	–	c1ccc(C2CC2)c(OCC2=NCCN2)c1 [Cirazoline hydrochloride]	Raw Signal [5]: 48676; Z-score [6]: -1.318
–	–	–	N.N.[Cl][Pt][Cl] [Cisplatin]	Raw Signal [5]: 49642; Z-score [6]: -0.7984
58251	–	–	CN(C)CCCC1(c2ccc(F)cc2)OCc2cc(C#N)ccc21 (centres unmarked) [Citalopram hydrobromide]	Z-score [2]: 0.05951
–	63989	1.07	C[N+](C)(C)CCOP(=O)([O-])OP(=O)([O-])OC[C@H]1O[C@@H](n2ccc(N)nc2=O)[C@H](O)[C@@H]1O.[Na+] [Citicoline sodium]	–
56495	–	–	Cl.Clc1ccc(Cn2c(CN3CCCC3)nc3ccccc32)cc1 [Clemizole hydrochloride]	Z-score [7]: -0.2498
56368	–	–	O=P(O)(O)C(Cl)(Cl)P(=O)(O)O [Clodronic acid]	Z-score [2]: 0.2439
58171	–	–	CCOC(=O)C(C)(C)Oc1ccc(Cl)cc1 [Clofibrate]	Z-score [2]: 0.04542
–	60543	0.4632	CN(C)CCCN1c2ccccc2CCc2ccc(Cl)cc21 [Clomipramine hydrochloride]	–
–	–	–	Clc1cccc(Cl)c1N=C1NCCN1 [Clonidine hydrochloride]	Raw Signal [5]: 54432; Z-score [6]: -0.6131
–	–	–	C#CCN(C)CCCOc1ccc(Cl)cc1Cl [Clorgyline hydrochloride]	Raw Signal [5]: 50699; Z-score [6]: -0.6208
–	61041	0.5509	Clc1ccccc1C(c1ccccc1)(c1ccccc1)n1ccnc1 [Clotrimazole]	–
–	–	–	CN1CCN(C2=Nc3cc(Cl)ccc3Nc3ccccc32)CC1 [Clozapine]	Raw Signal [5]: 54825; Z-score [6]: -0.5439
55575	–	–	C[C@]12CCC(=O)C=C1CC[C@@H]1[C@@H]2CC[C@@]2(C)[C@H]1CC[C@]2(O)C(=O)CO [Cortexolone]	Z-score [2]: -0.08719
55741	–	–	C[C@]12C[C@H](O)[C@H]3[C@@H](CCC4=CC(=O)CC[C@@]43C)[C@@H]1CC[C@@H]2C(=O)CO [Corticosterone]	Z-score [7]: -0.3826
59780	–	–	CC(=O)OCC(=O)[C@@]1(O)CC[C@H]2[C@@H]3CCC4=CC(=O)CC[C@]4(C)[C@H]3C(=O)C[C@@]21C [Cortisone 21-acetate]	Z-score [2]: 0.3288
–	65066	1.26	C[C@]12CCC(=O)C=C1CC[C@@H]1[C@@H]2C(=O)C[C@@]2(C)[C@H]1CC[C@]2(O)C(=O)CO [Cortisone]	–
–	63136	0.9199	CN(C)CCC=C1c2ccccc2C=Cc2ccccc21 [Cyclobenzaprine hydrochloride]	–
–	–	–	O=P1(N(CCCl)CCCl)NCCCO1 (centres unmarked) [Cyclophosphamide monohydrate]	Raw Signal: 58935; Z-score: 0.18
–	61194	1.224	NS(=O)(=O)c1cc2c(cc1Cl)NC(C1CC3C=CC1C3)NS2(=O)=O (centres unmarked) [Cyclothiazide]	–
–	61620	0.6529	CN1CCC(=C2c3ccccc3C=Cc3ccccc32)CC1 [Cyproheptadine hydrochloride]	–
–	63165	0.925	CC(=O)O[C@]1(C(C)=O)CC[C@H]2[C@@H]3C=C(Cl)C4=CC(=O)[C@@H]5C[C@@H]5[C@]4(C)[C@H]3CC[C@@]21C [Cyproterone acetate]	–
58178	–	–	NCCSSCCN [Cystamine dihydrochloride]	Z-score [2]: 0.04666
–	–	–	Cl.NCCS [Cysteamine hydrochloride]	Raw Signal [5]: 49886; Z-score [6]: -0.7574
55448	–	–	S=C([S-])OC1CC2CC1C1CCCC21.[K+] [D-609 potassium]	Z-score [7]: -0.1119
55913	–	–	N[C@@H]1CON=C1O [D-Cycloserine]	Z-score [7]: -0.3523
53973	–	–	N[C@H](CO)C(=O)O [D-Serine]	Z-score [7]: -0.3984
–	–	–	OCC1OC(n2cnc3ccccc32)C(O)C1O [D-ribofuranosylbenzimidazole]	Raw Signal [5]: 49673; Z-score [6]: -1.116

Compound	Raw Signal [1]	Raw Signal [3]	Z-score [4]	further results
COc1cc2c(c(OC)c1OC)-c1ccc(OC)c(=O)cc1[C@@H](NC(C)=O)CC2 [Colchicine]	58343	–	–	Z-score [2]: 0.07572
N[C@H](CCCCCP(=O)(O)O)C(=O)O [D(-)-2-Amino-7-phosphonoheptanoic acid]	–	62778	0.8568	–
